The values below come from paper PMC10687071 (The Journal of Biological Chemistry, 2023).

Molecules are shown by their SMILES. Changes are numbered by the printed parent chain.

For orientation: IC50 means the point on the concentration scale where inhibition reaches its midpoint. A low value points to inhibition by little substance.

The target of experiment [1] is T1, Y71R mutant EAG1 channels (Mus musculus, UniProt Q60603, Y71R).
T1 construct: expressed in transfected cells; host or cells: Xenopus laevis oocytes injected with cRNA
T1 sequence (Q60603 1-989 Y71R): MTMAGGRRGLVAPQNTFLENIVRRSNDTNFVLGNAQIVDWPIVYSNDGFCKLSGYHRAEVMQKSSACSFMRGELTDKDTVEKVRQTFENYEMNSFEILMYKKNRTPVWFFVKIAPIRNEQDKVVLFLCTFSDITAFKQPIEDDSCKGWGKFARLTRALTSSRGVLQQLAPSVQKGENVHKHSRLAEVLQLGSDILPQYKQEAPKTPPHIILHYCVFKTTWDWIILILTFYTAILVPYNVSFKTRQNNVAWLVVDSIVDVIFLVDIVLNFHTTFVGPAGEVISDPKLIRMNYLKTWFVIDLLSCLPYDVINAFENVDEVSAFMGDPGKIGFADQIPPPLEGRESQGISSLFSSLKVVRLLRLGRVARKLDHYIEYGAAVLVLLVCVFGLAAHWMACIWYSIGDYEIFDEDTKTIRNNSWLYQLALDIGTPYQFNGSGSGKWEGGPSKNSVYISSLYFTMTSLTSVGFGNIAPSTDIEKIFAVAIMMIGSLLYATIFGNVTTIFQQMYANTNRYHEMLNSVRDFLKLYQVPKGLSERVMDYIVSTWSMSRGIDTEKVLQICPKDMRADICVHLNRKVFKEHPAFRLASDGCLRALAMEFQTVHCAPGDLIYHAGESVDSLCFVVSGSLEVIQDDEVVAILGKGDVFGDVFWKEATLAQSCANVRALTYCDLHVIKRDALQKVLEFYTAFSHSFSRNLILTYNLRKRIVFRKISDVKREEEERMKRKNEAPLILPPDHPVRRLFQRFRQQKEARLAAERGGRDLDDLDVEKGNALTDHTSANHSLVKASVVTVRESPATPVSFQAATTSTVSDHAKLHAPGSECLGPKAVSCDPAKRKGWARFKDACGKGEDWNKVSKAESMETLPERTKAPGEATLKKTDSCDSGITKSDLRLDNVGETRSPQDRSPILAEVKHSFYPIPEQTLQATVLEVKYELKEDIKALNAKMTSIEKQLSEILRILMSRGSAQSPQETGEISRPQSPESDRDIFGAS
Put plainly: TEVC recording, imipramine inhibition, Y71R mutant. The following applies: Y71R mutant EAG1 channel, +50 mV. Type of experiment: cell-based. The source says:
(§1) The cDNA encoding wild-type (WT) mouse EAG1 channels in pGH19 vector was kindly provided by G. Robertson (University of Wisconsin-Madison, Madison, WI). The mutant ΔPAS EAG1 channel in pGH19 with the deletion of the PAS domain residues 2 to 130 was generated by Bio Basic Inc and verified by DNA sequencing (Genewiz). Mutant EAG1 channels with single amino acid substitutions were generated by Genewiz and verified by DNA sequencing. cRNA was transcribed using the T7 mMessage mMachine kit (Thermo Fisher Scientific). Defolliculated Xenopus laevis oocytes were purchased from Ecocyte Bioscience or Xenopus1 and injected with the cRNA using a Nanoinject II oocyte injector (Drummond).
(§2) For EAG1 current recordings, oocytes were placed into a handmade chamber containing a bath solution for the current recording. The currents were recorded using a TEVC technique with OC-725C amplifier (Warner Instruments) and pClamp11 software (Molecular Devices). The signals were digitized using Digidata 1550 (Molecular Devices). Patch pipettes were pulled from borosilicate glass and had resistances of 0.7 to 1.5 MΩ. The recording (bath) solution contained 96 mM NaCl, 4 mM KCl, 0.1 mM CaCl2, 1.8 mM MgCl2, and 5 mM HEPES, pH 7.5. The pipette solution contained 3 M KCl. […]

For experiment [2], the target named is T2, V80G mutant EAG1 channels (Mus musculus, UniProt Q60603, V80G).
T2 construct: expressed in transfected cells; host or cells: Xenopus laevis oocytes injected with cRNA
T2 sequence (Q60603 1-989 V80G): T1 sequence (Q60603 1-989 Y71R) with R71Y, V80G
Put plainly: TEVC recording, imipramine inhibition, V80G mutant. Type of experiment: cell-based. The conditions noted are these: V80G mutant EAG1 channel, +50 mV.
From the text: as §1, §2

In the case of `CN(C)CCCN1c2ccccc2CCc2ccccc21` [imipramine], the IC50 in experiment [1] worked out at 43.4 ± 7.5 µM; in experiment [2] it was 57.1 ± 3.1 µM.
